Data published in US20050106100A1, “Compounds containing matrix metalloproteinase substrates and methods of their use” (priority 2003, published 2005).

Legend:
[1] = test system: Aminopeptidase N; assay: Aminopeptidase N cleavage of test substrates (HPLC); format: biochemical; conditions: 1 mM test substrate, 0.02 U APN, 37° C., 25 minutes
Procedure: Aminopeptidase N cleaves amino acids at the N-terminus of proteins and peptides attached to another amino acid. The final attachment in our test substrates consists of an amino acid linked to a hydrazide. The cleavage of this amino acid by aminopeptidases exposes the reactive hydrazide species. Our goal was to study the cleavage of amide bond between an amino acid and a hydrazide by aminopeptidase N. A stock solution of test substrates was prepared in 100% DMSO at a concentration of 25 mM. The stock soluton (6 μL) was added to buffer (50 mM Hepes/pH 7.5, 10 mM CaCl2, 0.1% Brij) for a final concentration of 1 mM test substrate in the reaction. To this reaction mix 0.02 U of the enzyme (APN) was added, the solution was mixed, and immediately 67.5 μL of the mix was transferred to HPLC vials containing 33.2 μL of acetic acid for t=0 minute measurement. The rest of the mix in the test tube was incubated at 37° C. for 25 minutes. At the 25 minutes time point 67.5 μL of the mix was transferred to the HPLC vial containing 33.2 μl of acetic acid for t=25 minute measurement. […] The peak areas were integrated and the substrate peak area was used to determine rate constant k in the following equation: K={(% hydrolyzed/100)*[S]}/[E]*[time] where • S=test substrate concentration in μmoles • E=aminopeptidase N concentration in units/ml • K=μmoles of substrate hydrolyzed/minute/unit enzyme
The procedures of Examples 63 and 64 were used to prepare these additional enamides. The ability of aminopeptidase-N (APN) to remove the terminal amino acid was determined by using the procedure described in Example 46.

[2] = test system: Aminopeptidase N; assay: as above; format: biochemical; conditions: n = 2; for Rate, hydrolysis of N-terminal residue by APN (value in parenthesis): enzyme concentration […] 10^3 U; for Rate, hydrolysis of N-terminal residue by APN: enzyme concentration […] 10^4 U
[3] = test system: THP-1 cells; assay: Lipid bilayer insertion / cell binding of test substrates; format: cell-based, human; conditions: live cell suspensions
Procedure: This assay was designed to study localization of test substrates in lipid bilayers of cells. THP-1 cell line a human monocytic cell line was used in this assay. THP-1 cells were washed with phosphate buffered saline (PBS) and 2×10^6 cells were used for each reaction in a 150 μL reaction volume. Test substrates were added to these cell suspensions to give a final concentration of 0.15 mM in the reaction. The reactions were incubated at 37° C. for 1 hour. The test compound in the supernatant was analyzed by HPLC and quantified. The level of compound in the supernatant in the presence and absence of cells was determined and the following ratio was generated: R=Level of compound in absence of cells/level of compound in the presence of cells
The ratio increases with increased binding to cells. A ratio of 1 denotes no binding to cells.

| Compound | Rate of hydrolysis (min^−1, U^−1) [1] | Rate, hydrolysis of N-terminal residue by APN (value in parenthesis) [2] | Rate, hydrolysis of N-terminal residue by APN [2] | other results |
| --- | --- | --- | --- | --- |
| CC(C)C[C@H](N)C(=O)NNc1ccc(C(=O)NCCNC(=O)c2ccc(N/N=C/c3ccccc3S(=O)(=O)O)nc2)cc1 [Example 6, 2-{(1E)-2-[(5-{N-[2-({4-[((2S)-2-Amino-4-methylpentanoylamino)amino]phenyl}carbonylamino)ethyl]carbamoyl}(2-pyridyl))amino]-2-azavinyl}benzenesulfonic Acid] | 0 μmoles μmoles (min^−1, U^−1) | – | – | – |
| CC(C)C[C@H](N)C(=O)NNC(=O)c1ccc(N/N=C\c2ccccc2S(=O)(=O)O)nc1 [Example 7, 2-[2-({5-[N-((2S)-2-Amino-4-methylpentanoylamino)carbamoyl](2-pyridyl)}amino)(1Z)-2-azavinyl]benzenesulfonic Acid] | 1.2 μmoles μmoles (min^−1, U^−1) | – | – | – |
| CC(=O)NCCCCCC/C=C/NC(=O)[C@@H](N)CC(C)C.O=CO [Example 63, N-[(1E)-8-(Acetylamino)oct-1-enyl](2S)-2-amino-4-methylpentanamide, Formic Acid Salt] | – | 0.167 mmol substrate · min^−1 · U enzym^−1 | 0.202 mmol substrate · min^−1 · U enzym^−1 | – |
| CCC/C=C(\CCC)NC(=O)[C@H](C)NC(=O)[C@@H](N)CC(C)C [Example 332] | – | 0.802 mmol substrate · min^−1 · U enzym^−1 | 1.89 mmol substrate · min^−1 · U enzym^−1 | – |
| O=C(CCCCCCCc1ccc(O)cc1)NCCNC(=O)c1ccc(N/N=C/c2ccccc2S(=O)(=O)O)nc1 [Example 26, 2-((1E)-2-Aza-2-{[5-(N-{2-[8-(4-hydroxyphenyl)octanoylamino]ethyl}-carbamoyl)(2-pyridyl)]amino}vinyl)benzenesulfonic Acid] | – | – | – | association with cells (in words) [3]: will associate with cells |
| CCC/C=C(\CCC)NC(=O)[C@@H](N)CC(C)C [Example 333] | – | 0.209 mmol substrate · min^−1 · U enzym^−1 | 0.264 mmol substrate · min^−1 · U enzym^−1 | – |
| CC(C)C[C@H](N)C(=O)Nc1ccc(COC(=O)NNC(=O)CCCCCNC(=O)c2ccc(N/N=C/c3ccccc3S(=O)(=O)O)nc2)cc1 [Example 24, 2-((1E)-2-{[5-(N-{5-[N-({[4-((2S)-2-Smino-4-methylpentanoylamino)phenyl]methoxy}carbonylamino)carbamoyl]pentyl}carbamoyl)(2-pyridyl)]amino}-2-azavinyl)benzenesulfonic Acid] | 0.52 μmoles μmoles (min^−1, U^−1) | – | – | – |
| CC(C)C[C@H](N)C(=O)NNC(=O)c1ccc(CNC(=O)c2ccc(N/N=C/c3ccccc3S(=O)(=O)O)nc2)cc1 [Example 8, 2-[(1E)-2-({5-[N-({4-[N-((2S)-2-Amino-4-methylpentanoylamino)carbamoyl]phenyl}methyl)carbamoyl](2-pyridyl)}amino)-2-azavinyl]benzenesulfonic Acid] | 0.6 μmoles μmoles (min^−1, U^−1) | – | – | – |
| COc1ccc2cc(C(=O)NCCCCCC(=O)NNC(=O)[C@@H](N)CC(C)C)c(=O)oc2c1 [Example 9, N-((2S)-2-Amino-4-methylpentanoylamino)-6-[(7-methoxy-2-oxo(2H-chromen-3-yl))carbonylamino]hexanamide] | 0.62 μmoles μmoles (min^−1, U^−1) | – | – | – |
